# Like-named read-outs stand apart in the source and are kept apart here.
# Legend:
# sRANKL protein [1] = test: OBL culture, sRANKL protein in supernatant (ELISA); format: cell-based, human; details: 7 days; for reduction of sRANKL protein levels: OBL; for effect on sRANKL protein levels: OBL supernatants
# Method: (§1) Normal human OBL (nHOST, Lonza) were grown using OBL basal medium containing 10% fetal bovine serum, ascorbic acid, and gentamicin/amphotericin-B (Lonza). Cells were grown to a density of 5×10^5 cells/mL. Compounds were added and the final concentration of dimethyl sulfoxide (DMSO) was 0.25%. Plates were incubated at 5% CO2, 37° C. for 7 days, changing media every 3 days and adding fresh compound. The supernatant was collected for analysis of RANKL (USCNK Life Science Inc), OPG (R&D Systems), and SOST (R&D Systems) by enzyme-linked immunosorbent assay (ELISA). Cells were stained for ALP.
# sRANKL protein [2] = test: sRANKL protein levels in OCL cultures; format: cell-based, human
# [3] = system: Human bone marrow mononuclear cells differentiated into OCL; test: OCL differentiation (osteoclastogenesis), number of TRAP-5+ cells; format: cell-based; details: OCL cultures, 7 days
# [4] = system: RAW 264.7 mouse macrophages; test: OCL pit formation; format: cell-based; details: RAW 264.7 cells with RANKL 50 ng/mL, FIG. 6 and 7
# SOST protein = test: OCY differentiation, SOST protein levels (ELISA); format: cell-based, human
# Method: (§2) OBL were differentiated into OCY using hydroxyapatite/tricalcium phosphate biphasic calcium phosphate ceramic particles (Graftys BCP), which were placed into polycarbonate filter well inserts, and the cell culture media was changed every 3 days for a total of 28 days. Gene expression was measured by quantitative RT-PCR for the following: RANK, RANKL, SOST, OPG, mothers against decapentaplegic homolog 1 (SMAD1), collagen 9A2 (COL9A2), vascular endothelial growth factor C (VEGFC), and fibroblast growth factor receptor 1 (FGFR1). Protein production was measured by ELISA.
# OPG protein = test: OBL culture, OPG protein in supernatant (ELISA); format: cell-based, human; details: 0.1 μM
# Method: as §1
# RANK gene expression = details: OCL cultures
# Method: Human bone marrow mononuclear cells were differentiated into OCL using 10 nM dexamethasone and 10 nM vitamin D for 7 days. APR (0.1-10 μM) was added with fresh medium on days 0 and 3. […] OCL were lysed and RNA was isolated and converted to cDNA. Reverse transcription polymerase chain reaction (RT-PCR) was performed to measure gene expression of RANK and bone morphogenetic protein 6 (BMP-6).
# BMP-6 gene expression = BMP-6 gene expression in OCL cultures (RT-PCR); format: cell-based, human; details: FIG. 5
# sRANKL/OPG protein ratio = test: OBL culture, sRANKL/OPG protein ratio; format: cell-based, human
# Method: as §1
# sRANKL = test: OCY differentiation, sRANKL production (ELISA); format: cell-based, human
# Method: as §2
# [5] = system: Phosphodiesterase 4 enzyme; test: Inhibition of PDE4 (enzyme purified from U937 cells, [3H]-cAMP); format: biochemical; details: PDE4 from U937 human monocytic cells, 1 μM cAMP, 45 min at 30° C.
# Method: Phosphodiesterase 4 enzyme was purified from U937 human monocytic cells by gel filtration chromatography, and phosphodiesterase reactions were carried out as previously described. See, e.g., Muller et al., Bioorg. Med. Chem. Lett., 1998, 8(19): 2669-2674. Briefly, reactions were carried out in 96-well deep-well plates in 50 mM Tris HCl pH 7.5, 5 mM MgCl2, 1 μM cyclic adenosine monophosphate (cAMP), plus 10 nM [^3H]-cAMP for 45 min at 30° C. The reactions were terminated by boiling, treated with 1 mg/ml snake venom, and separated using AG-1X8 ion exchange resin (BioRad). Reactions consumed less than 15% of available substrate.
structure (smiles),measurement,setting,value
"CCOc1cc([C@@H](CS(C)(=O)=O)N2C(=O)c3cccc(NC(C)=O)c3C2=O)ccc1OC [(+)-2-[1-(3-ethoxy-4-methoxyphenyl)-2-methanesulfonylethyl]-4-acetylaminoisoindolin-1,3-dione]",reduction of sRANKL protein levels,sRANKL protein [1]; 1 μM,25%
same,reduction of sRANKL protein levels,sRANKL protein [1]; 10 μM,25%
same,reduction of sRANKL protein levels,sRANKL protein [2]; 0.1 μM,25%
same,reduction of sRANKL protein levels,sRANKL protein [2]; 1 μM,21%
same,reduction of sRANKL protein levels,sRANKL protein [2]; 10 μM,38%
same,reduction of number of TRAP-5+ cells,[3]; 0.1 μM,21%
same,reduction of number of TRAP-5+ cells,[3]; 1 μM,49%
same,reduction of number of TRAP-5+ cells,[3]; 10 μM,73%
same,effect on OCL pit formation,[4],inhibition of OCL pit formation
same,reduction of SOST protein levels,SOST protein; 0.1 μM,16%
same,reduction of SOST protein levels,SOST protein; 1 μM,20%
same,reduction of SOST protein levels,SOST protein; 10 μM,14%
same,increase of OPG protein levels,OPG protein,42%
same,inhibition of RANK gene expression,RANK gene expression; 1 μM,30%
same,inhibition of RANK gene expression,RANK gene expression; 10 μM,25%
same,effect on BMP-6 gene expression,BMP-6 gene expression,increase of BMP-6 gene expression
same,decrease of sRANKL/OPG protein ratio,sRANKL/OPG protein ratio; 0.1 μM,39%
same,decrease of sRANKL/OPG protein ratio,sRANKL/OPG protein ratio; 1 μM,32%
same,decrease of sRANKL/OPG protein ratio,sRANKL/OPG protein ratio; 10 μM,40%
same,reduction of sRANKL production,sRANKL; 0.1 μM,18%
same,reduction of sRANKL production,sRANKL; 1 μM,14%
same,reduction of sRANKL production,sRANKL; 10 μM,17%
same,IC50,[5],73.5 nM
"COc1ccc(C2CNC(=O)C2)cc1OC1CCCC1 (stereo not drawn) [Rolipram, rolipram, reference compound]",effect on sRANKL protein levels,sRANKL protein [1]; 10 μM,no significant effect
same,effect on sRANKL/OPG ratio,sRANKL/OPG protein ratio; 10 μM,no effect
"NCCCC(O)(P(=O)(O)O)P(=O)(O)O [Alendronate, alendronate, reference compound]",effect on sRANKL protein levels,sRANKL protein [1]; 10 μM,no significant effect
same,inhibition of RANK gene expression,RANK gene expression; 10 μM,77%
same,effect on sRANKL/OPG ratio,sRANKL/OPG protein ratio; 10 μM,no effect
"O=C(O)c1cc(/N=N/c2ccc(S(=O)(=O)Nc3ccccn3)cc2)ccc1O [sulfasalazine, reference compound]",effect on sRANKL protein levels,sRANKL protein [1]; 30 μM,no significant effect
same,effect on sRANKL/OPG ratio,sRANKL/OPG protein ratio; 30 μM,no effect

# From patent US20150290171A1, “METHODS FOR THE TREATMENT OF BONE LOSS” (CELGENE CORPORATION, priority 2012, published 2015)
